Usually IC50 stands for the concentration at which inhibition is half-maximal.

The source of these data is patent publication US20240239752A1, “BICYCLIC HETEROAROMATIC INHIBITORS OF KLK5” (BioCryst Pharmaceuticals, Inc., priority 2021, published 2024).

This experiment addresses T1, recombinant human KLK5 (Homo sapiens, UniProt Q9Y337).
T1 construct: purchased Novoprotein or R&D Systems C415 or 1108-SE
T1 sequence (Q9Y337 23-293): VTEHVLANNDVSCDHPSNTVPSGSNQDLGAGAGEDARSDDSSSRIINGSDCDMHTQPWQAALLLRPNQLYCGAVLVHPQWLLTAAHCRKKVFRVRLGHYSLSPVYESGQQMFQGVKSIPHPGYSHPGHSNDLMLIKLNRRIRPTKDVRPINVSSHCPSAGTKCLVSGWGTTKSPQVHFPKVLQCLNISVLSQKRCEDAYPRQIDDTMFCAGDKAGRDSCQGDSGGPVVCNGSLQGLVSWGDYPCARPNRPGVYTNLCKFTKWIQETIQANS
The experiment is described as follows: Kallikrein (KLK) 5 enzymatic assay (Boc-VPR-AMC fluorogenic substrate). Format: biochemical. The note with it: recombinant human KLK5 0.1 μg/well, Boc-VPR-AMC 100 μM, pH 7.5, room temperature, 1% DMSO; tested a minimum of three times. An excerpt:
Kallikrein-5 (KLK5) is a member of the serine protease family of proteolytic enzymes, confirmed to have trypsin-like activity (Michael I P, et al. Biochemical and enzymatic characterization of human kallikrein 5 (hK5), a novel serine protease potentially involved in cancer progression (J. Biol. Chem. 2005 Apr. 15; 280 (15): 14628-35). Boc-VPR-AMC is a fluorogenic peptide substrate composed of the short peptide chain, Valine-Proline-Arginine (VPR) and the fluorophore, 7-amino-4-methylcoumarin (AMC). KLK5 is able to cleave the fluorogenic peptide substrate Boc-VPR-AMC, releasing the AMC fluorophore, which causes a fluorescent emission in proportion with the enzymatic activity of KLK5. The KLK5 enzymatic activity is monitored by measuring fluorescent emission at wavelengths of 380 nm (excitation) and 460 nm (emission).
The IC50 value of compounds against KLK5 (i.e., the concentration of the compound that inhibits 50% of the enzymatic activity) was calculated according to the procedure reported by R&D systems (Recombinant human KLK5, Catalog Number: 1108-SE), with the exception the pH of the assay was modified from 8.0 to 7.5. Specifically, recombinant human KLK5 (Novoprotein Catalog #C415 or R&D systems Catalog #1108-SE) and fluorogenic peptide Boc-VPR-AMC substrate (R&D Catalog #ES011) were each separately diluted in assay buffer (0.1 M NaH2PO4 buffer, pH 7.5). The compounds of the disclosure were dissolved in DMSO at a concentration of 10 mM. A portion of this stock solution was added to the recombinant human KLK5 solution to provide a desired concentration of the compounds and the mixture was incubated at room temperature. The reaction was initiated by the addition of the fluorogenic peptide substrate at room temperature. The final concentration of recombinant human KLK5 was 0.1 μg/well and the final concentration of the fluorogenic substrate was 100 μM (final volume of 100 μL, 1% DMSO). The assays were performed in 96 well F16 Black Maxisorp Plate (Nunc Catalog #475515). Controls included assay buffer alone and enzyme solutions to which DMSO was added. The reaction rates were measured spectrophotometrically by excitation at 380 nm and emission at 460 nm on a Biotek Synergy H1 plate reader.
The reaction rate for enzyme alone was compared to the reaction rate of enzyme in the presence of compound and the percent inhibition was calculated as shown below:
Percent Inhibition=[Rate with inhibitor/Rate without inhibitor)]×100
An IC50 indicates a compound concentration that inhibits 50% of the enzymatic activity. Compounds were tested a minimum of three times.
Turning to `CC(C)n1nc(COc2ccccc2CC(=O)O)c2cc(-c3cccc(-c4cnc[nH]4)c3)ccc21` [Compound 51c, 2-(2-((5-(3-(1H-imidazol-5-yl)phenyl)-1-isopropyl-1H-indazol-3-yl)methoxy)phenyl)acetic acid], the IC50 was more than 10 µM.

Take `CC(C)n1nc(COc2ccccc2CC(=O)O)c2cc(-c3cccc(-c4nnc[nH]4)c3)ccc21` [Compound 52c, 2-(2-((5-(3-(4H-1,2,4-triazol-3-yl)phenyl)-1-isopropyl-1H-indazol-3-yl)methoxy)phenyl)acetic acid]: the IC50 was more than 10 µM.

`CC(C)n1nc(COc2ccccc2CC(=O)O)c2cc(-c3ccnc4c(N)cccc34)ccc21` [Compound 53c, 2-(2-((5-(8-aminoquinolin-4-yl)-1-isopropyl-1H-indazol-3-yl)methoxy)phenyl)acetic acid]: the IC50 was more than 10 µM.

On to `CC(C)n1nc(COc2ccccc2CC(=O)O)c2cc(-c3cccc4c(N)nn(C)c34)ccc21` [Compound 54c, 2-(2-((3′-amino-1-isopropyl-1′-methyl-1H, 1′H-[5,7′-biindazol]-3-yl)methoxy)phenyl)acetic acid], for which the IC50 was more than 10 µM.

With `CC(C)n1nc(COc2ccccc2CC(=O)O)c2cc(-c3ccc4ncc(N)n4n3)ccc21` [Compound 55c, 2-(2-((5-(3-aminoimidazo[1,2-b]pyridazin-6-yl)-1-isopropyl-1H-indazol-3-yl)methoxy)phenyl)acetic acid], the IC50 was more than 10 µM.

In the case of `CC(C)n1nc(COc2ccccc2CC(=O)O)c2cc(-c3cccc4cnc(N)cc34)ccc21` [Compound 56c, 2-(2-((5-(3-aminoisoquinolin-5-yl)-1-isopropyl-1H-indazol-3-yl)methoxy)phenyl)acetic acid], the IC50 was more than 10 µM.

Regarding `Cn1nc(COc2ccccc2CC(=O)O)c2cc(-c3ccc4ccnc(N)c4c3)ccc21` [Compound 57b, 2-(2-((5-(1-aminoisoquinolin-7-yl)-1-methyl-1H-indazol-3-yl)methoxy)phenyl)acetic acid], the IC50 is less than 1 µM.

As for `Cn1nc(COc2ccccc2CC(=O)O)c2cc(-c3cccc4c(N)nccc34)ccc21` [Compound 58b, 2-(2-((5-(1-aminoisoquinolin-5-yl)-1-methyl-1H-indazol-3-yl)methoxy)phenyl)acetic acid], the IC50 was less than 1 µM.

With `N=C(N)c1cccc(-c2ccc3c(c2)c(COc2ccccc2CC(=O)O)nn3C2CC2)c1` [Compound 59d, 2-(2-((5-(3-carbamimidoylphenyl)-1-cyclopropyl-1H-indazol-3-yl)methoxy)phenyl)acetic acid], the IC50 was less than 1 µM.

`Nc1nccc2ccc(-c3ccc4c(c3)c(COc3ccccc3CC(=O)O)nn4C3CC3)cc12` [Compound 60b, 2-(2-((5-(1-aminoisoquinolin-7-yl)-1-cyclopropyl-1H-indazol-3-yl)methoxy)phenyl)acetic acid]: the 50% inhibitory concentration (IC50) was less than 1 µM.

With `COc1ccc(CC(=O)O)c(OCc2nn(C(C)C)c3ccc(-c4ccc5ccnc(N)c5c4)cc23)c1` [Compound 61b, 2-(2-((5-(1-aminoisoquinolin-7-yl)-1-isopropyl-1H-indazol-3-yl)methoxy)-4-methoxyphenyl)acetic acid], the IC50 is less than 1 µM.

Turning to `Cc1ccc(CC(=O)O)c(OCc2nn(C(C)C)c3ccc(-c4ccc5ccnc(N)c5c4)cc23)c1` [Compound 62c, 2-(2-((5-(1-aminoisoquinolin-7-yl)-1-isopropyl-1H-indazol-3-yl)methoxy)-4-methylphenyl)acetic acid], the IC50 was less than 1 µM.

As for `CC(C)n1nc(C(=O)Nc2ccccc2CC(=O)O)c2cc(-c3ccc4ccnc(N)c4c3)ccc21` [Compound 63d, 2-(2-(5-(1-aminoisoquinolin-7-yl)-1-isopropyl-1H-indazole-3-carboxamido)phenyl)acetic acid], the IC50 was in the range of 1 to 10 µM.

For `CC(C)n1nc(COc2ccccc2CC(=O)O)c2cc(-c3cccc(C(=N)N)c3F)ccc21` [Compound 64d, 2-(2-((5-(3-carbamimidoyl-2-fluorophenyl)-1-isopropyl-1H-indazol-3-yl)methoxy)phenyl)acetic acid], the IC50 was less than 1 µM.

`Nc1nccc2c(-c3ccc4c(c3)c(COc3ccccc3CC(=O)O)nn4C3CC3)cccc12` [Compound 65b, 2-(2-((5-(1-aminoisoquinolin-5-yl)-1-cyclopropyl-1H-indazol-3-yl)methoxy)phenyl)acetic acid]: the IC50 was less than 1 µM.

Turning to `COc1ccc(CC(=O)O)c(OCc2nn(C3CC3)c3ccc(-c4ccc5ccnc(N)c5c4)cc23)c1` [Compound 66e, 2-(2-((5-(1-aminoisoquinolin-7-yl)-1-cyclopropyl-1H-indazol-3-yl)methoxy)-4-methoxyphenyl)acetic acid], the IC50 was less than 1 µM.

As for `CC(C)n1nc(COc2ccccc2CC(=O)O)c2cc(-c3ccc4c(N)n[nH]c4c3)ccc21` [Compound 67c, 2-(2-((3′-amino-1-isopropyl-1H, 1′H-[5,6′-biindazol]-3-yl)methoxy)phenyl)acetic acid], the IC50 was more than 10 µM.

For `CC(C)n1nc(COc2ccccc2CC(=O)O)c2cc(-c3cnc4[nH]nc(N)c4c3)ccc21` [Compound 68c, 2-(2-((5-(3-amino-1H-pyrazolo[3,4-b]pyridin-5-yl)-1-isopropyl-1H-indazol-3-yl)methoxy)phenyl)acetic acid], the IC50 is more than 10 µM.

Take `Nc1nccc2c(-c3ccc4c(c3)c(COc3ccccc3CC(=O)O)nn4C3CCC3)cccc12` [Compound 69b, 2-(2-((5-(1-aminoisoquinolin-5-yl)-1-cyclobutyl-1H-indazol-3-yl)methoxy)phenyl)acetic acid]: the IC50 is less than 1 µM.

Take `CC(C)n1nc(COc2ccccc2CC(=O)O)c2cc(-c3ccc4cccc(N)c4c3)ccc21` [Compound 70c, 2-(2-((5-(8-aminonaphthalen-2-yl)-1-isopropyl-1H-indazol-3-yl)methoxy)phenyl)acetic acid]: the IC50 was more than 10 µM.

Regarding `COc1ccc(CC(=O)O)c(OCc2nn(C)c3ccc(-c4ccc5ccnc(N)c5c4)cc23)c1` [Compound 71d, 2-(2-((5-(1-aminoisoquinolin-7-yl)-1-methyl-1H-indazol-3-yl)methoxy)-4-methoxyphenyl)acetic acid], the IC50 is less than 1 µM.

As for `COc1ccc(CC(=O)O)c(OCc2nn(C)c3ccc(-c4cccc5c(N)nccc45)cc23)c1` [Compound 72b, 2-(2-((5-(1-aminoisoquinolin-5-yl)-1-methyl-1H-indazol-3-yl)methoxy)-4-methoxyphenyl)acetic acid], the IC50 was less than 1 µM.

Consider `COc1ncc(N)c2cc(-c3ccc4c(c3)c(COc3ccccc3CC(=O)O)nn4C(C)C)ccc12` [Compound 73d, 2-(2-((5-(4-amino-1-methoxyisoquinolin-6-yl)-1-isopropyl-1H-indazol-3-yl)methoxy)phenyl)acetic acid], for which the IC50 was more than 10 µM.

On to `COc1cnc(N)c2cc(-c3ccc4c(c3)c(COc3ccccc3CC(=O)O)nn4C(C)C)ccc12` [Compound 74d, 2-(2-((5-(1-amino-4-methoxyisoquinolin-7-yl)-1-isopropyl-1H-indazol-3-yl)methoxy)phenyl)acetic acid], for which the half-inhibitory concentration (IC50) lay within 1 to 10 µM.

As to `CC(C)n1nc(COc2ccccc2CC(=O)O)c2cc(-c3ccc4cnc(N)cc4c3)ccc21` [Compound 75c, 2-(2-((5-(3-aminoisoquinolin-6-yl)-1-isopropyl-1H-indazol-3-yl)methoxy)phenyl)acetic acid], the IC50 is more than 10 µM.

On to `CC(C)n1nc(COc2ccccc2CC(=O)O)c2cc(-c3ccc4c(c3)C(N)CO4)ccc21` (stereo not drawn) [Compound 76c, 2-(2-((5-(3-amino-2,3-dihydrobenzofuran-5-yl)-1-isopropyl-1H-indazol-3-yl)methoxy)phenyl)acetic acid], for which the IC50 was more than 10 µM.

Regarding `CC(C)n1nc(COc2ccccc2CC(=O)O)c2cc(-c3ccc4c(c3)C(O)CC4)ccc21` (stereo not drawn) [Compound 77c, 2-(2-((5-(3-hydroxy-2,3-dihydro-1H-inden-5-yl)-1-isopropyl-1H-indazol-3-yl)methoxy)phenyl)acetic acid], the IC50 is more than 10 µM.
